In ChEMBL document CHEMBL1144134, “New biphenyl compounds with DNA strand-scission activity from Clusia paralicola” (J Nat Prod, 1999):
≈ marks a conversion by molar mass, not a printed value. Calls of active or inactive are those of the source. The calls are words filed in the database; no cut-off is given here.

Tests used:
[1] = Induction of DNA strand-scission activity assessed as relaxation of supercoiled DNA at 2.5 ug/ml; design: scale not given: the % may be the effect or the level left
KB = assay: Cytotoxicity against human KB cells; format: functional, cell-based

Row | Activity [1] | Structure (SMILES) | EC50 (KB) [µg/mL]
1 | 77% | CC(C)=CCC/C(C)=C/Cc1cc(O)c(O)cc1-c1cc(O)c(CC=C(C)C)c(O)c1 [CLUSIPARALICOLINE A] | 3.8 (≈ 8.99 µM)
2 | 65% | CC(C)=CCC/C(C)=C/Cc1cc(O)c(O)cc1-c1cc(O)c2c(c1)OC(C)(C)C=C2 [CLUSIPARALICOLINE B] | 4.5 (≈ 10.7 µM)
3 | inactive | CC1(C)C=Cc2c(O)cc(-c3ccc(O)cc3)cc2O1 [CLUSIPARALICOLINE C] | 5.3 (≈ 19.8 µM)
